Data reported in patent US8785493B2, “Treatment of retroviral reservoirs exploiting oxidative stress” (Istituto Superiore di Sanita, priority 2008, dated 2014).

Assays:
Type in all cases: cell-based
[1] = system: HIV-1 replication in latently HIV-1 infected lymphocytic ACH-2 cells
[2] = system: HIV-1 replication in latently HIV-1 infected monocytoid U1 cells
[3] = system: HIV-1 LTR in quiescently infected Jurkat 8.4 cells; experiment: HIV-1 LTR-controlled GFP expression, flow cytometry, Jurkat clone 8.4
[4] = system: HIV-1 LTR in Jurkat A1 cells; conditions: 72 h
[5] = system: NF-kappaB (p65/p50) in Jurkat 8.4 cells; experiment: NF-kappaB nuclear translocation, colorimetric p65 assay; parameters: dose or concentration left out as unconfirmed; conditions: auranofin, different incubation times, relative to TNF-alpha 1.5 h
Description: Detection of NF-kappaB nuclear translocation. Nuclear extracts from control Jurkat 8.4 cells and cells treated with auranofin at different times of incubation were obtained using a nuclear extraction kit (Chemicon International), following the Manufacturer's instructions. NF-kappaB nuclear translocation was detected using a colorimetric transcription factor assay (Millipore) for the p65 subunit. Results were expressed as a percentage of the signal obtained in cells incubated with the potent NF-kappaB stimulating cytokine TNF-alpha (5 ng/ml) for 1.5 h, at which the peak of nuclear translocation of NF-kappaB is reached.

[6] = system: our cell lines; experiment: Toxicity of auranofin to the cell lines used; conditions: concentrations approx. two orders of magnitude superior to those of the present study, data not shown
From the text: Cell viability assay. Cell viability was quantitated using the methyl tetrazolium (MTT) procedure. Absorbance values were generated at a wavelength of 550 nm using 96-well ELISA readers and subtracted of the blank values using cell culture media in the absence of cells. Cell viability in the presence of the test compounds was expressed as a percentage of the cell viability of control untreated cell cultures.

In the case of “gold(1+); 3,4,5-triacetyloxy-6-(acetyloxymethyl)oxane-2-thiolate; triethylphosphanium [auranofin]”, the “Effect on HIV-1 replication (p24), ACH-2 cells” value ([1]; 0.125-0.5 μM, 24 h and 72 h) is reported as “increased HIV-1 replication in a time- and dose-dependent manner”, the “Combined HIV-1 activating effect with BSO, ACH-2 cells” value ([1]; auranofin plus BSO, percentage-of-synergism surface, three days) is reported as “synergistic HIV-1 activating effects” and the “Combined HIV-1 activating effect with FeNTA, ACH-2 cells” value ([1]; percentage-of-synergism surface, three days) is reported as “synergistic HIV-1 activating effects”. The “Effect on HIV-1 replication (p24), U1 cells” value ([2]; 0.125-0.5 μM, 24 h and 72 h) was “increased HIV-1 replication in a time- and dose-dependent manner”, the “Combined HIV-1 activating effect with MC2113, U1 cells” value ([2]; auranofin 0.25 μM plus MC2113 1 μM, 24 h) was “synergistic” and the “LTR-controlled GFP expression, Jurkat 8.4 cells” value ([3]; 72 h, gated live cells) was “dose-dependent shift in fluorescence”. The “GFP expression in combination with HDACI (MC2113), Jurkat 8.4 cells” value ([3]; auranofin 0.25 microM plus MC2113 1 microM) was “recruited the HDACi-unresponsive cells into the responding cell population”, the “LTR-controlled GFP expression, Jurkat A1 cells” value [4] was “induction of LTR-controlled expression of green-fluorescent protein (GFP)” and the “NF-kappaB (p65) in nuclear extracts” value [5] was “time-dependent NF-kappaB accumulation within the nuclei”. For the same substance, the “Toxicity to cell lines” value [6] was “toxic to our cell lines”.
